Measured values from US20060252807A1, “Novel ortho-terphenyl inhibitors of p38 kinase and methods of treating inflammatory disorders” (Kalypsys, Inc., priority 2005, published 2006).

What follows are compounds tested against T1, active p38 alpha enzyme (Upstate Biotechnology) (Homo sapiens, UniProt Q16539) (assay: p38α biochemical assay (ATP turnover, luminescent detection, Cambrex PKlight)). Settings: p38α biochemical assay, Table 1 Biological Activity.
T1 construct: purchased Upstate Biotechnology
In short: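 Measures total ATP turnover by luminescence after human p38α phosphorylates full MapkapK2 protein. Final ATP is 1.4 uM, and incubation runs 2 hours at 30C. The buffer includes 100 mM MgCl2, 4 mM CaCl2 and 1 mg/ml BSA.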

T1 sequence (Q16539 whole entry): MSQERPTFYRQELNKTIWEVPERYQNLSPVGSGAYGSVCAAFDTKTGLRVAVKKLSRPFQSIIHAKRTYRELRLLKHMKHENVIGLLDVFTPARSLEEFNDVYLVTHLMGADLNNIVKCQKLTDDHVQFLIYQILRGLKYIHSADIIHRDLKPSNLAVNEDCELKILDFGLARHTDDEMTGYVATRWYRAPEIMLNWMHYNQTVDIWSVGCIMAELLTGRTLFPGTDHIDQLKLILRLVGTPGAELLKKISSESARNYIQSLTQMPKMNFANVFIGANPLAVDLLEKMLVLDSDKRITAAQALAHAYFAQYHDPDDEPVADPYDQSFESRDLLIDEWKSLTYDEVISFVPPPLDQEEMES

Compound	IC50
CC(C)NC(=O)c1csc(-c2c(-c3ccc(F)cc3)noc2CNC(=O)c2ccc3ccccc3c2O)n1 [Example 720]	> 1000 nM
CC(C)NC(=O)c1csc(-c2oc(CNC(=O)c3cc4ccccc4cc3O)nc2-c2ccc(F)cc2)n1 [Example 244]	> 1000 nM
Cc1cccc(CCC(=O)NCc2nc(-c3ccc(F)cc3)c(-c3nc(C(=O)NC(C)C)cs3)o2)c1 [Example 173]	> 1000 nM
O=C(NCc1cccnc1)c1csc(-c2c(-c3ccc(F)cc3)n[nH]c2C2CCNCC2)n1 [Example 67, 2-|3-(4-Fluoro-phenyl)-5-piperidin-4-yl-1H-pyrazol-4-yl|-thiazole-4-carboxylic acid (pyridin-3-ylmethyl)-amide]	≤ 1000 nM
Cc1onc(-c2ccc(Cl)cc2)c1-c1ccn(C(=O)NC(C)CO)n1 (stereo not shown) [Example 6, 3-|3-(4-Chloro-phenyl)-5-methyl-isoxazol-4-yl|-pyrazole-1-carboxylic acid (2-hydroxy-1-methyl-ethyl)-amide]	≤ 1000 nM
CC(C)NC(=O)c1csc(-c2c(-c3ccc(F)cc3)nc3ncccn23)n1 [Example 97, 2-|2-(4-Fluoro-phenyl)-imidazo|1,2-a|pyrimidin-3-yl|-thiazole-4-carboxylic acid isopropylamide]	> 1000 nM
CC(C)NC(=O)c1csc(-c2oc(CNC(=O)c3csc4ccccc34)nc2-c2ccc(F)cc2)n1 [Example 206]	> 1000 nM
Cc1nc(-c2ccc(F)cc2)c(-c2nc(C(=O)NCCCN3CCOCC3)cs2)s1 [Example 58, 4′-(4-Fluoro-phenyl)-2′-methyl-|2,5′|bithiazolyl-4-carboxylic acid (3-morpholin-4-yl-propyl)-amide]	> 1000 nM
COc1ccccc1CC(=O)NCc1nc(-c2ccc(F)cc2)c(-c2nc(C(=O)NC(C)C)cs2)o1 [Example 182]	≤ 1000 nM
CC(C)NC(=O)c1csc(-c2oc(CN3CCN(C(=O)c4cccnc4)CC3)nc2-c2ccc(F)cc2)n1 [Example 349]	> 1000 nM
CC(=O)Oc1cccc(C(=O)NCc2onc(-c3ccc(F)cc3)c2-c2nc(C(=O)NC(C)C)cs2)c1 [Example 690]	> 1000 nM
CC(=O)c1ccc(C(=O)NCc2nc(-c3ccc(F)cc3)c(-c3nc(C(=O)NC(C)C)cs3)o2)cc1 [Example 167]	≤ 1000 nM
CC(C)NC(=O)c1csc(-c2oc(CNC(=O)c3ccccc3[N+](=O)[O-])nc2-c2ccc(F)cc2)n1 [Example 184]	≤ 1000 nM
Cc1ccccc1CC(=O)NCc1nc(-c2ccc(F)cc2)c(-c2nc(C(=O)NC(C)C)cs2)o1 [Example 135]	> 1000 nM
CC(C)NC(=O)c1csc(-c2oc(CN3CCN(C(=O)c4c(F)cccc4Cl)CC3)nc2-c2ccc(F)cc2)n1 [Example 437]	> 1000 nM
CC(C)CC(NC(=O)OC(C)(C)C)C(=O)NCc1nc(-c2ccc(F)cc2)c(-c2nc(C(=O)NC(C)C)cs2)o1 (stereo not shown) [Example 329]	> 1000 nM
CC(C)NC(=O)c1csc(-c2oc(CNC(=O)c3ccc(Cl)c([N+](=O)[O-])c3)nc2-c2ccc(F)cc2)n1 [Example 274]	> 1000 nM
CC(C)NC(=O)c1csc(-c2c(-c3ccc(F)cc3)noc2CNC(=O)c2cccc(Cl)c2Cl)n1 [Example 726]	> 1000 nM
CC(C)NC(=O)c1csc(-c2c(-c3ccc(F)cc3)noc2CNC(=O)c2cc(Cl)ccc2Cl)n1 [Example 728]	> 1000 nM
CC(C)NC(=O)c1csc(-c2oc(CNC(=O)c3ccccc3Oc3ccccc3)nc2-c2ccc(F)cc2)n1 [Example 289]	> 1000 nM
CC(C)NC(=O)c1csc(-c2c(-c3ccc(F)cc3)noc2CNC(=O)c2cc([N+](=O)[O-])ccc2O)n1 [Example 709]	> 1000 nM

Same assay, conditions: p38α kinase; Table 1 Biological Activity

Compound	IC50
CC(C)NC(=O)c1csc(-c2oc(CNCCCO)nc2-c2ccc(F)cc2)n1 [Example 1063]	> 1000 nM
CC(C)NC(=O)c1csc(-c2c(-c3ccc(F)cc3)n[nH]c2C2CCN(C(=O)/C=C/c3ccc(Cl)cc3)CC2)n1 [Example 944]	> 1000 nM
Cc1nc(-c2ccc(F)cc2)c(-c2nc(C(=O)NC(C)Cc3ccncc3)cs2)s1 (stereo not shown) [Example 1776]	> 1000 nM
CC(C)NC(=O)c1csc(-c2c(-c3ccc(F)cc3)n[nH]c2C2CCN(C(=O)C(Cc3ccc(O)cc3)NC(=O)OC(C)(C)C)CC2)n1 (stereo not shown) [Example 1048]	> 1000 nM
CC(C)NC(=O)c1csc(-c2c(-c3ccc(F)cc3)noc2CN(Cc2cccnc2)Cc2cccnc2)n1 [Example 1603]	> 1000 nM
Cc1ccccc1C(=O)N1CCC(c2[nH]nc(-c3ccc(F)cc3)c2-c2nc(C(=O)NC(C)C)cs2)CC1 [Example 836]	≤ 1000 nM
Cc1nc(-c2ccc(F)cc2)c(-c2nc(C(=O)N3CCC(N(C)C)C3)cs2)s1 (stereo not shown) [Example 1859]	> 1000 nM
O=C(NCCCN1CCCC1=O)c1csc(-c2c(-c3ccc(F)cc3)n[nH]c2C2CCNCC2)n1 [Example 2110]	> 1000 nM
CCCCOc1ccc(C(=O)N2CCC(c3[nH]nc(-c4ccc(F)cc4)c3-c3nc(C(=O)NC(C)C)cs3)CC2)cc1 [Example 977]	≤ 1000 nM
CC(C)NC(=O)c1csc(-c2c(-c3ccc(F)cc3)n[nH]c2C2CCN(C(=O)c3cccc(Cl)c3Cl)CC2)n1 [Example 965]	> 1000 nM
CC(C)CCNC(=O)c1csc(-c2c(-c3ccc(F)cc3)n[nH]c2C2CCNCC2)n1 [Example 2048]	> 1000 nM
CCCC(C)NCc1nc(-c2ccc(F)cc2)c(-c2nc(C(=O)NC(C)C)cs2)o1 (stereo not shown) [Example 1067]	> 1000 nM
CC(C)NC(=O)c1csc(-c2c(-c3ccc(F)cc3)n[nH]c2C2CCN(C(=O)c3cc4cc(Cl)ccc4o3)CC2)n1 [Example 978]	> 1000 nM
CC(C)NC(=O)c1csc(-c2c(-c3ccc(F)cc3)n[nH]c2C2CCN(C(=O)c3cc(F)c(F)cc3[N+](=O)[O-])CC2)n1 [Example 992]	> 1000 nM
CC(C)NC(=O)c1csc(-c2c(-c3ccc(F)cc3)noc2CNC(=O)C(Cc2ccccn2)NC(=O)OC(C)(C)C)n1 (stereo not shown) [Example 807]	> 1000 nM
CCCCN(C)C(=O)c1csc(-c2sc(C)nc2-c2ccc(F)cc2)n1 [Example 1844]	> 1000 nM
CC(C)NC(=O)c1csc(-c2c(-c3ccc(F)cc3)noc2CN2CCCC2CO)n1 (stereo not shown) [Example 1525]	≤ 1000 nM
CC(C)NC(=O)c1csc(-c2c(-c3ccc(F)cc3)n[nH]c2C2CCN(C(=O)c3cn(C)cn3)CC2)n1 [Example 831]	> 1000 nM
CC(C)NC(=O)c1csc(-c2c(-c3ccc(F)cc3)noc2CNc2ccccc2C(C)(C)C)n1 [Example 1672]	> 1000 nM
CC(C)NC(=O)c1csc(-c2c(-c3ccc(F)cc3)n[nH]c2C2CCN(C(=O)c3ccc([N+](=O)[O-])c(O)c3)CC2)n1 [Example 946]	> 1000 nM
COc1ccc(NC(=O)c2csc(-c3sc(C)nc3-c3ccc(F)cc3)n2)c(C)c1 [Example 1988]	≤ 1000 nM
CC(C)NC(=O)c1csc(-c2oc(CNCCC(c3ccccc3)c3ccccc3)nc2-c2ccc(F)cc2)n1 [Example 1179]	> 1000 nM

Compound	IC50
COc1cc(CNC(=O)c2csc(-c3sc(C)nc3-c3ccc(F)cc3)n2)cc(OC)c1 [Example 1813]	≤ 1000 nM
COc1cc(CNCc2onc(-c3ccc(F)cc3)c2-c2nc(C(=O)NC(C)C)cs2)cc(OC)c1 [Example 1489]	> 1000 nM
CC(C)NC(=O)c1csc(-c2oc(CN(C)C(Cc3ccccc3)c3ccccc3)nc2-c2ccc(F)cc2)n1 (stereo not shown) [Example 1288]	> 1000 nM
CC(C)NC(=O)c1csc(-c2c(-c3ccc(F)cc3)noc2CN2CCN(c3ccccc3Cl)CC2)n1 [Example 1627]	> 1000 nM
O=C(NCCc1ccc2c(c1)OCO2)c1csc(-c2c(-c3ccc(F)cc3)n[nH]c2C2CCNCC2)n1 [Example 2155]	> 1000 nM
COc1cc2c(cc1OC)CN(Cc1nc(-c3ccc(F)cc3)c(-c3nc(C(=O)NC(C)C)cs3)o1)CC2 [Example 1295]	> 1000 nM
N#CCCNC(=O)c1csc(-c2c(-c3ccc(F)cc3)n[nH]c2C2CCNCC2)n1 [Example 2037]	> 1000 nM
CC(C)NC(=O)c1csc(-c2c(-c3ccc(F)cc3)noc2CNCCc2ccccc2F)n1 [Example 1459]	> 1000 nM
CC(C)NC(=O)c1ccn(-c2c(-c3ccc(F)cc3)noc2C2CCNCC2)n1 [Example 2188, 1-|3-(4-Fluoro-phenyl)-5-piperidin-4-yl-isoxazol-4-yl|-1H-pyrazole-3-carboxylic acid isopropylamide]	> 1000 nM
Cc1nc(-c2ccc(F)cc2)c(-c2nc(C(=O)O)cs2)s1 [Example 1703]	> 1000 nM
Cc1nc(-c2ccc(F)cc2)c(-c2nc(C(=O)N3CCN(Cc4ccc5c(c4)OCO5)CC3)cs2)s1 [Example 1945]	> 1000 nM
CC(=O)N1CCC(c2onc(-c3ccc(F)cc3)c2-c2nc(C(=O)NC(C)C)cs2)CC1 [Example 2184, 2-|5-(1-Acetyl-piperidin-4-yl)-3-(4-fluoro-phenyl)-isoxazol-4-yl|-thiazole-4-carboxylic acid isopropylamide]	≤ 1000 nM
CC(C)NC(=O)c1csc(-c2c(-c3ccc(F)cc3)noc2CNCCN(C)C)n1 [Example 1402]	> 1000 nM
CCOC(=O)C1CCN(Cc2nc(-c3ccc(F)cc3)c(-c3nc(C(=O)NC(C)C)cs3)o2)CC1 [Example 1237]	> 1000 nM
CC(C)NC(=O)c1csc(-c2oc(CNCCc3cccc(Cl)c3)nc2-c2ccc(F)cc2)n1 [Example 1151]	> 1000 nM
CC(C)NC(=O)c1csc(-c2oc(CNC3CCCc4ccccc43)nc2-c2ccc(F)cc2)n1 (stereo not shown) [Example 1139]	> 1000 nM
CC(C)NC(=O)c1csc(-c2c(-c3ccc(F)cc3)n[nH]c2C2CCN(C(=O)c3cc4ccccc4o3)CC2)n1 [Example 877]	> 1000 nM
Cc1nc(-c2ccc(F)cc2)c(-c2nc(C(=O)N(C)CCC#N)cs2)s1 [Example 1840]	> 1000 nM
CC(C)NC(=O)c1csc(-c2c(-c3ccc(F)cc3)n[nH]c2C2CCN(C(=O)c3cc4ccccc4cc3O)CC2)n1 [Example 958]	> 1000 nM
Cc1nc(-c2ccc(F)cc2)c(-c2nc(C(=O)NCc3ccc(Cl)c(Cl)c3)cs2)s1 [Example 1820]	≤ 1000 nM
CC(C)NC(=O)c1csc(-c2c(-c3ccc(F)cc3)noc2CNCc2ccc3c(c2)OCO3)n1 [Example 1472]	> 1000 nM
